What is called solubility (kinetic) is solubility judged after dilution from a stock solution rather than from solid.

Each structure is given as a SMILES string. ≈ marks a conversion by molar mass, not a printed value.

For this series the following is noted: buffer; pH 7.4; 200.0 µM.
For the compound `COc1cccc(NC(=O)COC(=O)C2=NN(c3ccccc3)C(=O)CC2)c1`, the solubility (kinetic) is > 57.2 µg/mL.

As to `Cc1ccccc1NC(=O)Cc1c[nH]c2ccccc12`, the kinetic solubility was 39.5 µg/mL (≈ 149 µM).

`CC(NC(=O)c1ccccc1)C(=O)N/N=C/c1ccco1` (configuration not stated): the kinetic solubility is > 42.8 µg/mL.

`CN(C)Cc1c(-c2ccc(Cl)cc2)nc2ccccn12`: the kinetic solubility came to 40.4 µg/mL (≈ 141 µM).

Turning to `Cc1ccccc1NC(=O)Cc1cccs1`, the kinetic solubility is > 34.7 µg/mL.

Turning to `CCCCOc1ccc(C(=O)CCN2CCCCC2)cc1.Cl`, the kinetic solubility is > 48.9 µg/mL.

Regarding `Cc1ccc2[nH]c3c(c2c1)CNCC3.Cl`, the solubility (kinetic) was 31.7 µg/mL.

In the case of `O=C1OCc2ccc(NC(=O)c3ccccc3C(=O)O)cc21`, the kinetic solubility is > 44.6 µg/mL.

As for `COc1ccc(OC)c(NC(=O)CC(NC(C)=O)c2ccccc2)c1` (configuration not stated), the kinetic solubility amounted to 45.3 µg/mL (≈ 132 µM).

Consider `CC1CCCN(C(=O)CN2C(=O)C(C)Oc3ccccc32)C1` (configuration not stated), for which the kinetic solubility is > 45.4 µg/mL.

Take `CCCC(C)NC(=O)COC(=O)c1cccc(NS(C)(=O)=O)c1` (configuration not stated): the solubility (kinetic) came to 50.7 µg/mL (≈ 148 µM).

For `CCCn1c(C)cc(C=O)c1C`, the solubility (kinetic) turned out to be 16.3 µg/mL (≈ 98.6 µM).

For `Cc1cc(NC(=O)COc2ccc(C)c(C)c2)no1`, the kinetic solubility was found to be 0.7 µg/mL (≈ 2.69 µM).

In the case of `COc1cccc(NC(=O)CNCc2ccccc2)c1.Cl`, the solubility (kinetic) is > 46 µg/mL.

For `O=S(=O)(c1ccc(Cl)cc1)N1CCC(n2cccc2)CC1`, the kinetic solubility came out at 0.6 µg/mL (≈ 1.85 µM).

`CCCCOc1ccc(C(=O)OCC(=O)NC2CCCC2)cc1` registered a solubility (kinetic) of 5.5 µg/mL (≈ 17.2 µM).

On to `CN(CCO)C(=O)c1c(NC(=O)c2ccccc2)sc2c1CCCC2`, for which the solubility (kinetic) amounted to 34.1 µg/mL (≈ 95.1 µM).

In turn, `CN1c2ccc([N+](=O)[O-])cc2N(C)C1(C)c1ccccc1` (configuration not stated) came in with a solubility (kinetic) of 1.2 µg/mL (≈ 4.24 µM).

`COc1cccc(C(=O)Nc2cc(C)nn2-c2ccccc2)c1OC`: the kinetic solubility is > 50.6 µg/mL.

`CS(=O)(=O)c1ccc(Cl)c(NC(=O)Nc2ccccc2)c1` returned a solubility (kinetic) of 5.1 µg/mL (≈ 15.7 µM).

As to `Cc1cc(Cl)ccc1NC(=S)NC1CCCC1`, the solubility (kinetic) was found to be 18.1 µg/mL (≈ 67.3 µM).

Turning to `O=C(O)c1cccc(Nc2nc3ccccc3nc2NS(=O)(=O)c2ccccc2)c1`, the kinetic solubility is > 63.1 µg/mL.

`COc1cccc(NC2=C(NCCO)C(=O)c3ccccc3C2=O)c1`: the kinetic solubility was 47.4 µg/mL (≈ 140 µM).

In turn, `CC(C)c1ccc(OCC(=O)NC2=NCCS2)cc1` returned a solubility (kinetic) of 15.8 µg/mL (≈ 56.8 µM).

`O=C(NC12CC3CC(CC(C3)C1)C2)c1ccc(Br)o1` registered a solubility (kinetic) of 9.7 µg/mL (≈ 29.9 µM).

Compound `CC1(c2ccccc2)NC(=O)N(CC(=O)Nc2ccc3c(c2)CCC3)C1=O` (configuration not stated) registered a solubility (kinetic) of 3.8 µg/mL (≈ 10.5 µM).

Turning to `O=C(O)CC(NC(=O)CCc1ccccc1)c1ccc(Cl)cc1` (configuration not stated), the kinetic solubility turned out to be 44.5 µg/mL (≈ 134 µM).

`CN1CCN(S(=O)(=O)c2ccc3c(c2)CC(=O)N3C)CC1`: the kinetic solubility is > 46.4 µg/mL.

For the compound `O=C(NCC1CC1)c1cc([N+](=O)[O-])cc([N+](=O)[O-])c1`, the solubility (kinetic) was > 39.8 µg/mL.

In the case of `OCCCNc1c2ccccc2nc2ccccc12`, the kinetic solubility is > 37.8 µg/mL.

Regarding `Cc1cccc(OCC(=O)NCc2ccc(F)cc2)c1`, the solubility (kinetic) is 23.4 µg/mL (≈ 85.6 µM).

In the case of `O=C(O)c1ccc(CSc2nc3ccccc3[nH]2)cc1`, the kinetic solubility stood at 39.2 µg/mL (≈ 138 µM).

The compound `CN(C)S(=O)(=O)c1cc(C(=O)NCc2ccccc2)c(Cl)cc1Cl` gave a kinetic solubility of 47.1 µg/mL (≈ 122 µM).

On to `NS(=O)(=O)c1ccc(C(=O)Nc2ccc(-c3nc4cccnc4s3)cc2)cc1`, for which the kinetic solubility was determined as 2.5 µg/mL (≈ 6.09 µM).

As for `Cc1ccnc(NS(=O)(=O)c2ccccc2)c1`, the kinetic solubility came to 31.3 µg/mL (≈ 126 µM).

For the compound `COc1cc(/C=C/C(=O)OCC(=O)NC(=O)NC(C)C)ccc1O`, the solubility (kinetic) was > 50.5 µg/mL.

For the compound `O=C(Nc1cccc2c1CCCC2)c1ccccc1F`, the kinetic solubility is 2.5 µg/mL (≈ 9.28 µM).

As for `O=C1ON=C(c2ccccc2)/C1=C\c1ccco1`, the solubility (kinetic) came to 35.2 µg/mL (≈ 147 µM).

With `COc1ccc(/C=C/c2nc(-c3ccccc3)cc(=O)[nH]2)cc1`, the solubility (kinetic) is < 0.3 µg/mL.

The compound `COc1ccccc1CNC(=O)c1ccc2ccccc2n1` displayed a kinetic solubility of 15.8 µg/mL (≈ 54 µM).

The compound `CCN1CCN(S(=O)(=O)c2ccc(OC)c3ccccc23)CC1` registered a kinetic solubility of 29.2 µg/mL (≈ 87.3 µM).

The compound `CCOc1ccc(NC(=O)CCN2C(=S)NC(C)(C)CC2C)cc1` (configuration not stated) gave a solubility (kinetic) of 41.5 µg/mL (≈ 119 µM).

In turn, `CN(C)c1nc(F)c(F)c(S(=O)(=O)c2ccccc2)c1F` showed a solubility (kinetic) of 12.4 µg/mL (≈ 39.2 µM).

As to `Cc1ccc(S(=O)(=O)N2CCc3ccccc3C2)cc1C`, the kinetic solubility is < 0.6 µg/mL.

With `COc1ccc(NC(=O)CC2(CC(=O)O)CCCC2)cn1`, the kinetic solubility is > 43.9 µg/mL.

`CCCn1c(=O)c2[nH]cnc2n(-c2ccc(Cl)cc2)c1=O` registered a solubility (kinetic) of 44.9 µg/mL (≈ 147 µM).

On to `O=C1CCCc2c1nc(-c1ccc([N+](=O)[O-])cc1)n2O`, for which the solubility (kinetic) is > 41 µg/mL.

For `c1ccc2c(c1)COC(CNC1CCCCC1)OC2`, the kinetic solubility is > 39.2 µg/mL.

Compound `CC(C)Oc1ccc(OCCn2c(=S)[nH]c3c(N)ncnc32)cc1` came in with a solubility (kinetic) of 45.2 µg/mL (≈ 131 µM).

For the compound `Cc1cnc(C(=O)OCC(=O)N2CCC(C)CC2)cn1`, the solubility (kinetic) was > 41.6 µg/mL.

In turn, `COCCNC(=O)/C(C#N)=C/c1cccc(OCc2ccccc2)c1` gave a kinetic solubility of 21.2 µg/mL (≈ 63 µM).

`COc1ccc(CC(C)Nc2cccc(SC)c2)cc1` (configuration not stated) returned a solubility (kinetic) of 1.6 µg/mL (≈ 5.57 µM).
